From US11884750B2, “Cationic cell penetrating peptides and the use thereof” (CELLTROY CO., LTD., priority 2021, dated 2024)
Entries after “also recorded” stand apart in the source; their conditions may differ.

Experiments:
HaCAT cells = experiment: Cell penetration efficiency in human epidermal (skin) cells, 4 μM, flow cytometry; type: cell-based; conditions: 4 μM FITC-conjugated CPP, one hour
Description: The cell penetration efficiency of the cationic CPPs selected in Example 1 was evaluated using human epidermal cells. In further detail, HaCAT cells, which is a human epidermal cell line, were seeded in 24-well plates to have a cell density of 1×10^7 cells/well, and cultured in 10% FBS-added DMEM under conditions of 37° C. and 5% CO2 for 24 hours. Subsequently, the cells were treated 4 μM each of the FITC-conjugated CPP or FITC-conjugated TAT, and incubated for one hour. After the termination of the incubation, the cells were transferred to a sterile tube using 0.25% trypsin, and the medium was removed through centrifugation. Afterward, the cells were washed with 500 μL of D-PBS twice to completely remove the medium, and finally, resuspended in 400 μL of D-PBS and intracellular fluorescence was measured by flow cytometry (FACSCanto II).
(§1) To evaluate the cell penetration efficiency of the additionally selected cationic CPPs, an experiment was conducted using human epidermal cells or human neuroblastoma cells. In further detail, HaCAT cells, which is a human epidermal cell line, or SH-SYSY cells, which is a human neuroblastoma cell line, were seeded in 24-well plates to have a cell density of 1×10^7 cells/well and cultured in 10% FBS-added DMEM under conditions of 37° C. and 5% CO2 for 24 hours. In addition, the cells were treated with 4 μM each of FITC-conjugated peptides and FITC-conjugated TAT for one hour. After the completion of the culture, the cells were transferred to a sterile tube using 0.25% trypsin and centrifuged to remove the medium. Afterward, the cells were washed with 500 μL of D-PBS twice to completely remove the medium, and finally, resuspended in 400 μL of D-PBS and intracellular fluorescence was measured by flow cytometry (FACSCanto II).
(§2) Subsequently, to confirm whether the CPPs according to the present invention show excellent cell permeability into different types of cells/tissues, various tissue-derived cells were treated with biologically active molecule-conjugated CPPs to compare its delivery capacity with TAT. As in the previous examples, each cell was aliquoted in a plate at an appropriate density, and cultured in a 10% FBS-added medium under a condition of 37° C. and 5% CO2 for 24 hours. Subsequently, the cells were treated with 4 μM each of FITC-conjugated CPP or FITC-conjugated TAT and incubated for one hour. After the completion of the incubation, the cells were transferred to a sterile tube using 0.25% trypsin and centrifuged to remove the medium. Afterward, the cells were washed with 500 μL of D-PBS twice to completely remove the medium, and finally, resuspended in 400 μL of D-PBS and intracellular fluorescence was measured by flow cytometry (FACSCanto II).

SH-SY5Y cells = experiment: Cell penetration efficiency in human neuroblastoma cells, 4 μM, flow cytometry; type: cell-based; conditions: one hour; for cell permeability compared with TAT: 4 μM FITC-conjugated CPP, flow cytometry; for Score / Score/TAT: 4 μM FITC-conjugated peptide; for Score: intracellular fluorescence by flow cytometry; for Score/TAT: ratio to FITC-conjugated TAT
Description: The cell penetration efficiency of the cationic CPPs selected in Example 1 was evaluated in neuroblastoma. In further detail, SH-SYSY cells, which is a human neuroblastoma cell line, were seeded in 24-well plates to have a cell density of 1×10^7 cells/well, and cultured in 10% FBS-added DMEM under conditions of 37° C. and 5% CO2 for 24 hours. In addition, the cells were treated with 4 μM each of FITC-conjugated CPPs (C12, C14, C16, C31, C52, and C67), or FITC-conjugated TAT, and incubated for one hour. After the termination of the incubation, the cells were transferred to a sterile tube using 0.25% trypsin and centrifuged to remove the medium. Afterward, the cells were washed with 500 μL of D-PBS twice to completely remove the medium, and finally, resuspended in 400 μL of D-PBS and intracellular fluorescence was measured by flow cytometry (FACSCanto II).
as §1, §2

monocytes = experiment: Cell penetration efficiency using monocytes; type: cell-based; conditions: 4 μM FITC-conjugated CPP, one hour
Description: as §2

HGB cell line = experiment: Cell penetration efficiency in glioblastoma cells; type: cell-based, human; conditions: 4 μM FITC-conjugated CPP, one hour
Description: as §2

HDF cell line = experiment: Cell penetration efficiency in skin cells (HDF); type: cell-based; conditions: 4 μM FITC-conjugated CPP, one hour
Description: as §2

HeLa cell line = experiment: Cell penetration efficiency using cervical cancer cells; type: cell-based; conditions: 4 μM FITC-conjugated CPP, one hour
Description: as §2

HT1080 cell line = experiment: Cell penetration efficiency using connective tissue (fibrosarcoma) cells; type: cell-based; conditions: 4 μM FITC-conjugated CPP, one hour
Description: as §2

HepG2 cell line = experiment: Cell penetration efficiency using liver cells; type: cell-based; conditions: 4 μM FITC-conjugated CPP, one hour
Description: as §2

HEK293T cell line = experiment: Cell penetration efficiency using kidney cells; type: cell-based; conditions: 4 μM FITC-conjugated CPP, one hour
Description: as §2

A-427 cell line = experiment: Cell penetration efficiency using lung cells; type: cell-based; conditions: A-427 lung cells, 4 μM FITC-conjugated CPP, one hour
Description: as §2

SNU-46 cell line = experiment: Cell penetration efficiency using laryngeal cells; type: cell-based; conditions: SNU-46 laryngeal cells, 4 μM FITC-conjugated CPP, one hour
Description: as §2

macrophages = experiment: Cell penetration efficiency using macrophages; type: cell-based; conditions: macrophages differentiated from THP1 cells, 4 μM FITC-conjugated CPP, one hour
Description: as §2, with “II). Macrophages were used by inducing differentiation from THP1 cells. Specifically, the THP-1 cells were aliquoted on a cover glass laid on a 24-well plate to have a density of 6×10^4 cells/well, and after the addition of 100 ng/mL of phorbol 12-myristate 13-acetate (PMA), the cells were incubated for 48 hours to induce the differentiation into macrophages. After 48 hours, the cells were washed with Dulbecco's phosphate buffered saline (DPBS) to perform an experiment.” for “II).”

Row | Sequence | cell permeability compared with TAT (HaCAT cells) | cell permeability compared with TAT (SH-SY5Y cells) | Score (SH-SY5Y cells) | Score/TAT (SH-SY5Y cells) | cell permeability compared with TAT (monocytes) | cell permeability compared with TAT (HGB cell line) | cell permeability compared with TAT (HDF cell line) | cell permeability compared with TAT (HeLa cell line) | cell permeability compared with TAT (HT1080 cell line) | cell permeability compared with TAT (HepG2 cell line) | cell permeability compared with TAT (HEK293T cell line) | cell permeability compared with TAT (A-427 cell line) | cell permeability compared with TAT (SNU-46 cell line) | cell permeability compared with TAT (macrophages)
1 | ARLRVILRRRNPKR [C93] | higher cell permeability | higher cell permeability | 1798 | 3.464 | higher cell permeability | higher cell permeability | higher cell permeability | higher cell permeability | higher cell permeability | higher cell permeability | higher cell permeability | higher cell permeability | higher cell permeability | –
2 | IPLRRLMRRARRHR [C112] | higher cell permeability | higher cell permeability | 946 | 1.823 | higher cell permeability | higher cell permeability | higher cell permeability | higher cell permeability | – | higher cell permeability | – | – | higher cell permeability | higher cell permeability
3 | IRAKKKKRRRKKKP [C31] | increased cell permeability; also recorded: higher cell permeability | higher cell permeability | 998 | 1.923 | – | – | higher cell permeability | higher cell permeability | higher cell permeability | higher cell permeability | higher cell permeability | higher cell permeability | higher cell permeability | higher cell permeability
4 | KPRKKKKKRKNKKI [C12] | increased cell permeability | higher cell permeability | 2062 | 3.973 | – | higher cell permeability | higher cell permeability | higher cell permeability | higher cell permeability | higher cell permeability | higher cell permeability | higher cell permeability | higher cell permeability | higher cell permeability
5 | MPKIRKLKRRKKFR [C79] | higher cell permeability | higher cell permeability | 863 | 1.663 | higher cell permeability | higher cell permeability | higher cell permeability | higher cell permeability | higher cell permeability | higher cell permeability | – | – | higher cell permeability | –
6 | RPRRKKQIKRLCKR [C16] | increased cell permeability; also recorded: higher cell permeability | higher cell permeability | 1680 | 3.237 | – | higher cell permeability | higher cell permeability | higher cell permeability | higher cell permeability | higher cell permeability | higher cell permeability | higher cell permeability | higher cell permeability | higher cell permeability
7 | SRRRLRRFLRRIAP [C185] | higher cell permeability | higher cell permeability | 1684 | 3.245 | higher cell permeability | higher cell permeability | higher cell permeability | higher cell permeability | – | higher cell permeability | higher cell permeability | – | higher cell permeability | higher cell permeability
8 | TKRRKRRLRRRLTP [C52] | increased cell permeability; also recorded: higher cell permeability | higher cell permeability | 1328 | 2.559 | – | – | higher cell permeability | higher cell permeability | higher cell permeability | higher cell permeability | higher cell permeability | higher cell permeability | higher cell permeability | higher cell permeability
